Laboratory results taken from patent US8614205B2, “Glutamate receptor modulators and therapeutic agents” (priority 2009, dated 2013).

Columns and labels:
mGluR1 = biological target: T1, mGluR1 (Homo sapiens, UniProt Q13255); assay: aequorin calcium assay, negative allosteric modulation of mGluR1; format: cell-based; details: for mGluR1/mGluR5 Ratio: EC50 for mGluR1 divided by EC50 for mGluR5; for EC50: aequorin assay, agonist at EC80, 10000 = no activity observed at 10,000 nM
T1 construct: expression induced with doxycycline
T1 sequence (Q13255 19-1194): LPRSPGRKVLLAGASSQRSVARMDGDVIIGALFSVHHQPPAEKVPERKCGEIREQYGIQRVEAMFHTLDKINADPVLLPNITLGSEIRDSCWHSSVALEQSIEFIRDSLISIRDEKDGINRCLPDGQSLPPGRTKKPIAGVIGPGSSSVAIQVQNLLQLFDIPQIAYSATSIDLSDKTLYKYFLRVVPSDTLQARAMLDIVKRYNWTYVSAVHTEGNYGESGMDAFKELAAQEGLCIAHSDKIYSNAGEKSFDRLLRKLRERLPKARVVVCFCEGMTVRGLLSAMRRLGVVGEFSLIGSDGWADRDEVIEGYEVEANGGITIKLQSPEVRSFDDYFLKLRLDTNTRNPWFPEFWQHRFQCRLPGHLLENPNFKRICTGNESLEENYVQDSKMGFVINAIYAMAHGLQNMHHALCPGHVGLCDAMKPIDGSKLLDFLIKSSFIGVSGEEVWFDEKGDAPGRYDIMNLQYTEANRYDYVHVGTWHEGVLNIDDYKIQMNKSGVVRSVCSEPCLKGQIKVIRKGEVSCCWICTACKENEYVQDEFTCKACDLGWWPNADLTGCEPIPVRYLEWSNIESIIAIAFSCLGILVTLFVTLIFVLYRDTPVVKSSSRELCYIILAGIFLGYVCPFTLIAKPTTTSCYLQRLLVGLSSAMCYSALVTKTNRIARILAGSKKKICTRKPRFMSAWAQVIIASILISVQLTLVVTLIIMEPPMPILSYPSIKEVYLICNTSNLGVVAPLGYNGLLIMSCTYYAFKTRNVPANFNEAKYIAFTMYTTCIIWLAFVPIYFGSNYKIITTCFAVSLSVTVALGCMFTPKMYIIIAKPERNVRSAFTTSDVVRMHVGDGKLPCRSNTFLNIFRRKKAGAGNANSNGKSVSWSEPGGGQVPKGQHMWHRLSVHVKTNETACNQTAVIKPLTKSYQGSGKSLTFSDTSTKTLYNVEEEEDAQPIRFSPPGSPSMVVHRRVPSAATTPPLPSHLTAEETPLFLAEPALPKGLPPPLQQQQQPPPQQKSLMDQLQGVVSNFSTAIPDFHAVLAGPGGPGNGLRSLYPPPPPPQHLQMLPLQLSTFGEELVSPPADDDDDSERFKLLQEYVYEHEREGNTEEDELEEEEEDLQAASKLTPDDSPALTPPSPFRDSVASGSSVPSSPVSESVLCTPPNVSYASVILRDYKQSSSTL
Procedure: (§1) The ability of test compound to ameliorate the efflux of calcium cations (Ca^++) in the presence of agonist (glutamate or quisqualate) is measured by detection of light emitted by the luminescent protein aequorin triggered by binding of Ca^++. Aequorin is a photoprotein isolated from luminescent jellyfish (like various Aequorea species e.g. Aequorea victoria). Aequorin is composed of two distinct units, the apoprotein apoaequorin, with an approximate molecular weight of 22 kDa, and the prosthetic group, coelenterazine, responsible for emission of light. In the presence of molecular oxygen the two components of aequorin assemble spontaneously, forming the functional protein. Four EF-hand type regions have been identified in the structure of Aequorin and at least 3 of them function as binding sites for Ca+2 ions: Ca+2 binding to these EF hands triggers a conformational change of the protein, that leads it to oxidize its prosthetic group, coelenterazine, into excited coelenteramide and CO2. As the excited coelenteramide relaxes to the ground state, blue light (wavelength=469 nm) is emitted and can be measured by a luminometer. Negative allosteric modulator activity of test compound is expressed as a percentage of the stimulation of reference agonist (glutamate) activity at its EC80 concentration. Assay of Compounds was performed at Euroscreen SA, Gosselies, Belgium.
(§2) Cells stably transfected with mGlu1 or mGlu5 were grown 18 hours prior to the test in culture medium containing 600 ng/ml doxycycline, then were detached by gentle flushing with PBS-EDTA, recovered by centrifugation and resuspended in “assay buffer” (HBSS, 2.1 mM CaCl2, 3 μg/ml GPT (Glutamate-Pyruvate transaminase), 4 mM MEM Sodium Pyruvate, 0.1% BSA, protease free). Cells were incubated at room temperature for at least 4 h with coelenterazine-h. Dose response curves were performed using mGluR1 cells with the orthosteric agonist glutamate and negative allosteric modulator JNJ16259685. Dose response curves were performed using mGluR5 cells with the orthosteric agonist glutamate and negative allosteric modulator MPEP. For agonist testing, 30 μl of cell suspension were mixed with 30 μl of test compound or reference agonist in a 384-well plate. The resulting emission of light was recorded using the Hamamatsu Functional Drug Screening System 6000 (FDSS 6000). For negative allosteric modulator testing, 60 μl of the resulting cell suspension containing the test compound was mixed with 30 μl of the reference agonist at EC80 following an incubation of 3 min after the first injection. The resulting emission of light was recorded using FDSS 6000. […] Plates also contained the reference agonist at a concentration equivalent to the EC80 obtained during the test validation. Negative allosteric modulator activity of test compound was expressed as a percentage of the stimulation of reference agonist activity at its EC80 concentration.

mGluR5 = biological target: T2, mGluR5 (Homo sapiens, UniProt P41594); assay: aequorin calcium assay, negative allosteric modulation of mGluR5; format: cell-based; details: aequorin assay, agonist at EC80; 10000 = no activity observed at 10,000 nM; read-out: mGluR5 EC50
T2 construct: expression induced with doxycycline
T2 sequence (P41594 21-1212): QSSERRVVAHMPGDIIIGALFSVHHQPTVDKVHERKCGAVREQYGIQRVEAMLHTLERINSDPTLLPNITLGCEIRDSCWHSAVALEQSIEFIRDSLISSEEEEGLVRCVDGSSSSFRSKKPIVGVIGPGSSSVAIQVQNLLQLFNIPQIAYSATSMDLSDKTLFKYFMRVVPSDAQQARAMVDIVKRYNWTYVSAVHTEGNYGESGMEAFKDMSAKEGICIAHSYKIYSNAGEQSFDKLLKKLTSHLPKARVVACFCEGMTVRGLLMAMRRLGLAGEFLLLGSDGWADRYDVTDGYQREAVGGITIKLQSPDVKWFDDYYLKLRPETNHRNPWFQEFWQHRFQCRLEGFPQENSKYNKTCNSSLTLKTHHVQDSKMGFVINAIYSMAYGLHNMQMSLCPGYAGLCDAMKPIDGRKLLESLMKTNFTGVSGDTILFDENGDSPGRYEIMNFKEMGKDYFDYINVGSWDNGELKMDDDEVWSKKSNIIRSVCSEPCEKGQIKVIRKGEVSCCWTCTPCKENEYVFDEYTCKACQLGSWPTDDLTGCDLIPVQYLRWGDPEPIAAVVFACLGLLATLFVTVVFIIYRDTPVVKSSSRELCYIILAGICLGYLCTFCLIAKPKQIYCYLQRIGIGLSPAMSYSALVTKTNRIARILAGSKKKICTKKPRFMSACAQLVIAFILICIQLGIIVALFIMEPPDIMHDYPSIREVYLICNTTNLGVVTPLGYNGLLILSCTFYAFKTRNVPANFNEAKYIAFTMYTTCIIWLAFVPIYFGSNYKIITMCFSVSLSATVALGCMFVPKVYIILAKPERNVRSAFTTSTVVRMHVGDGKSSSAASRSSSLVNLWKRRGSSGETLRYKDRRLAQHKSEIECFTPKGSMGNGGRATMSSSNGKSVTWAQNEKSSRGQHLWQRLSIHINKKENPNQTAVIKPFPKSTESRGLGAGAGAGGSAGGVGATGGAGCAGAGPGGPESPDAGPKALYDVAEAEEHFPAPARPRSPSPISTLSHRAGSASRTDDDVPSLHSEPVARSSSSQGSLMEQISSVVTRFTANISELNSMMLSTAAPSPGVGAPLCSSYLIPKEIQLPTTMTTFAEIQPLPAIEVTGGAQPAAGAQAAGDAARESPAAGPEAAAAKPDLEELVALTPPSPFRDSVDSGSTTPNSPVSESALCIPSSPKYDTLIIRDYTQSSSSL
Procedure: as §1, §2

| Structure (SMILES) | mGluR1/mGluR5 Ratio (mGluR1) | EC50 (mGluR1) | EC50 (mGluR5) |
| --- | --- | --- | --- |
| O=C(Nc1ccc([N+](=O)[O-])cc1Cl)c1cc(Cl)cc(Cl)c1O [Compound 2, 3,5-dichoro-N-(2-chloro-4-nitrophenyl)-2 hydroxybenzamide] | 2.36 | 1580 nM | 669 nM |
| O=C(Nc1ccc([N+](=O)[O-])cc1Cl)c1ccccc1O [Compound 4, N-(2-chloro-4-nitrophenyl)-2 hydroxybenzamide] | 1.73 | 290 nM | 168 nM |
| O=C(Nc1ccc(Cl)c(Cl)c1)c1cc(Cl)ccc1O [Compound 5] | 1.99 | 179 nM | 90 nM |
| O=C(Nc1ccccc1)c1cc(Cl)ccc1O [Compound 6] | 4.16 | 3040 nM | 731 nM |
| Cc1cccc(NC(=O)c2cc(Cl)ccc2O)c1 [Compound 8] | 28.40 | 2390 nM | 84 nM |
| O=C(Nc1cccc(Br)c1)c1cc(Cl)ccc1O [Compound 9] | 2.77 | 459 nM | 166 nM |
| C#Cc1cccc(NC(=O)c2cc(Cl)ccc2O)c1 [Compound 10] | 7.64 | 932 nM | 122 nM |
| C=Cc1cccc(NC(=O)c2cc(Cl)ccc2O)c1 [Compound 11, 5-Chloro-2-hydroxy-N-(3-vinylphenyl)benzamide] | 7.73 | 371 nM | 48 nM |
| CCc1cccc(NC(=O)c2cc(Cl)ccc2O)c1 [Compound 12, 5-Chloro-2-hydroxy-N-(3-ethylphenyl)benzamide] | 6.36 | 859 nM | 135 nM |
| O=C(Nc1cccc(C(F)(F)F)c1)c1cc(Cl)ccc1O [Compound 13] | 2.15 | 273 nM | 127 nM |
